# Publication PMC12892976, “Alkylation-based optimization of antifungal FPPS inhibitors yields a potent, broad-spectrum lipophilic zoledronate derivative” (mBio, 2025)
# What was measured:
# [1] = system: Cryptococcus neoformans; experiment: checkerboard drug interaction (FICI, MICc); type: cell-based; conditions: for INH FD (MIC-MICc fold decrease): fold decrease of inhibitor MIC;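 as to all read-outs here: antifungal plus FPPS inhibitor pairs tested against Cryptococcus neoformans by simplified diagonal checkerboard screening, FICI computed under the Loewe additivity model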
# Method: (§1) Drug interactions between antifungals and FPPS inhibitors were investigated using a simplified checkerboard diagonal screening method ([45]). […] FICIs were determined according to the Loewe additivity model ([17]).
# [2] = system: Trichophyton rubrum; experiment: MIC/MFC broth microdilution (CLSI)
# Method: (§2) Antifungal susceptibility was determined by broth microdilution according to the CLSI guidelines described in M27-Ed4 ([16]). […] MFC was determined by back-plating drug-treated cultures from MIC broths onto SDA plates. The MFC was defined as the lowest concentration from which no colonies could be cultured.
# [3] = system: Trichophyton rubrum; experiment: checkerboard drug interaction (FICI, MICc); type: cell-based;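 also: simplified diagonal checkerboard screen pairing azole antifungals with FPPS inhibitors, FICI calculated under the Loewe additivity model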
# Method: as §1
# [4] = system: Saccharomyces cerevisiae; experiment: MIC/MFC broth microdilution (CLSI); type: cell-based; conditions: Saccharomyces cerevisiae S288c
# Method: as §2
# [5] = system: Candida albicans; experiment: checkerboard drug interaction (FICI, MICc); type: cell-based; conditions: for INH FD (MIC-MICc fold decrease): fold decrease of inhibitor MIC;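 as to all read-outs here: antifungal plus FPPS inhibitor combinations on Candida albicans tested by a simplified diagonal checkerboard screen, with FICI calculated under the Loewe additivity model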
# Method: as §1
# [6] = system: Aspergillus flavus; experiment: MIC/MFC broth microdilution (CLSI); conditions: ATCC204304
# Method: as §2
# [7] = system: Cryptococcus bacillisporus; experiment: MIC broth microdilution (CLSI); type: cell-based; conditions: Cryptococcus bacillisporus NIH179
# Method: (§3) Antifungal susceptibility was determined by broth microdilution according to the CLSI guidelines described in M27-Ed4 ([16]).
# [8] = system: Cryptococcus deuterogattii; experiment: MIC/MFC broth microdilution (CLSI);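 also: broth microdilution per CLSI M27-Ed4. MFC is the lowest concentration yielding no colonies when MIC broths are subcultured onto SDA plates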
# Method: as §2
# [9] = system: Candida albicans; experiment: MIC/MFC broth microdilution (CLSI); type: cell-based; conditions: Candida albicans SC5314
# Method: as §2
# [10] = system: eight fungal species; experiment: checkerboard interaction with azoles, summary across the eight species; type: cell-based
# From the text: Synergy between lipophilic FPPS inhibitors and azole antifungals was investigated by determining the fractional inhibitory concentration index (FICI) (Fig. 2; Table S1 Fig. S1) ([17]). […]. Derivatives PLA9 and 11, and PDA9, 11, and 12 antagonized azoles in C. albicans, C. neoformans, and C. deuterogattii, yet were largely synergistic in C. glabrata and S. cerevisiae. […].
# [11] = system: Aspergillus terreus; experiment: MIC broth microdilution (CLSI); type: cell-based; conditions: Aspergillus terreus 75-16-089-2500
# Method: as §3
# [12] = system: Candida glabrata; experiment: MIC/MFC broth microdilution (CLSI);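 also: broth microdilution following CLSI M27-Ed4, MFC taken as the lowest drug level yielding no growth once MIC wells were subcultured on SDA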
# Method: as §2
# [13] = system: Aspergillus fumigatus; experiment: checkerboard drug interaction (FICI, MICc); type: cell-based; conditions: for INH FD (MIC-MICc fold decrease): fold decrease of inhibitor MIC;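 as to all read-outs here: simplified diagonal checkerboard screen pairing antifungals with FPPS inhibitors against Aspergillus fumigatus, with FICI calculated under the Loewe additivity model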
# Method: as §1
# [14] = C. neoformans, ITR:INH combination
# [15] = C. neoformans, KET:INH combination
# [16] = C. albicans, FLC:INH combination
# [17] = C. albicans, ITR:INH combination
# [18] = C. albicans, KET:INH combination
# [19] = A. fumigatus, FLC:INH combination
# [20] = A. fumigatus, ITR:INH combination
# [21] = A. fumigatus, KET:INH combination
smiles,measurement,setting,value
"O=P(O)(O)C(O)(Cn1ccnc1)P(=O)(O)O [ZOL, zoledronate]",INH MICc,"[1]; C. neoformans, FLC:INH combination, MIC of the inhibitor in combination with FLC",8
same,FLC FD (MIC-MICc fold decrease),"[1]; C. neoformans, FLC:INH combination, fold decrease of FLC MIC",4
same,INH FD (MIC-MICc fold decrease),"[1]; C. neoformans, FLC:INH combination",8
same,FICI,[1]; [14],0.19
same,INH MICc,"[1]; C. neoformans, ITR:INH combination, MIC of the inhibitor in combination with ITR",4
same,ITR FD (MIC-MICc fold decrease),"[1]; C. neoformans, ITR:INH combination, fold decrease of ITR MIC",8
same,INH FD (MIC-MICc fold decrease),[1]; [14],16
same,FICI,[1]; [15],0.19
same,INH MICc,"[1]; C. neoformans, KET:INH combination, MIC of the inhibitor in combination with KET",4
same,KET FD (MIC-MICc fold decrease),"[1]; C. neoformans, KET:INH combination, fold decrease of KET MIC",8
same,INH FD (MIC-MICc fold decrease),[1]; [15],16
same,FICI,[1]; CAS:ZOL,≥4
same,FICI,[1]; FLC:ZOL,0.38
same,FICI,[1]; ITR:ZOL,0.19
same,FICI,[1]; KET:ZOL,0.19
same,FICI,[1]; VOR:ZOL,0.98
same,bisphosphonate MICc,[1]; ZOL with 5FC,16
same,bisphosphonate MICc,[1]; ZOL with AMB,8
same,bisphosphonate MICc,[1]; ZOL with CAS,128
same,bisphosphonate MICc,[1]; ZOL with FLC,8
same,bisphosphonate MICc,[1]; ZOL with ITR,4
same,bisphosphonate MICc,[1]; ZOL with KET,4
same,bisphosphonate MICc,[1]; ZOL with VOR,16
same,FICI,"[1]; with FLC, Cryptococcus neoformans",0.38
same,FICI,"[1]; with ITR, Cryptococcus neoformans",0.19
same,FICI,"[1]; with KET, Cryptococcus neoformans",0.19
same,MFC,[2]; Trichophyton rubrum,> 128 µg/mL
same,MIC,[2]; Trichophyton rubrum,128 µg/mL
same,MIC / MEC,[2]; Trichophyton rubrum R-218,128 µg/mL
same,FICI,[3]; 5FC:ZOL,2
same,FICI,[3]; AMB:ZOL,≥4
same,FICI,[3]; CAS:ZOL,0.5
same,FICI,[3]; FLC:ZOL,0.5
same,FICI,[3]; ITR:ZOL,0.75
same,FICI,[3]; KET:ZOL,0.38
same,FICI (FLC:INH),"[3]; T. rubrum, Fractional Inhibitory Concentration Index, fluconazole + inhibitor",0.5
same,FICI (ITR:INH),"[3]; T. rubrum, Fractional Inhibitory Concentration Index, itraconazole + inhibitor",0.75
same,FICI (KET:INH),"[3]; T. rubrum, Fractional Inhibitory Concentration Index, ketoconazole + inhibitor",0.38
same,INH MICc (FLC:INH),"[3]; T. rubrum, MIC of the inhibitor in combination with fluconazole",32
same,INH MICc (ITR:INH),"[3]; T. rubrum, MIC of the inhibitor in combination with itraconazole",64
same,INH MICc (KET:INH),"[3]; T. rubrum, MIC of the inhibitor in combination with ketoconazole",16
same,FLC FD (FLC:INH),"[3]; T. rubrum, MIC-MICc fold decrease of fluconazole, negative = increase",4
same,ITR FD (ITR:INH),"[3]; T. rubrum, MIC-MICc fold decrease of itraconazole, negative = increase",4
same,KET FD (KET:INH),"[3]; T. rubrum, MIC-MICc fold decrease of ketoconazole, negative = increase",4
same,INH FD (FLC:INH),"[3]; T. rubrum, MIC-MICc fold decrease of the inhibitor, with fluconazole",4
same,INH FD (ITR:INH),"[3]; T. rubrum, MIC-MICc fold decrease of the inhibitor, with itraconazole",2
same,INH FD (KET:INH),"[3]; T. rubrum, MIC-MICc fold decrease of the inhibitor, with ketoconazole",8
same,FICI,[3]; VOR:ZOL,0.38
same,bisphosphonate MICc,[3]; ZOL with 5FC,128
same,bisphosphonate MICc,[3]; ZOL with AMB,256
same,bisphosphonate MICc,[3]; ZOL with CAS,32
same,bisphosphonate MICc,[3]; ZOL with FLC,32
same,bisphosphonate MICc,[3]; ZOL with ITR,64
same,bisphosphonate MICc,[3]; ZOL with KET,16
same,bisphosphonate MICc,[3]; ZOL with VOR,16
same,FICI,"[3]; with ITR, Trichophyton rubrum",0.75
same,MFC,[4],> 128 µg/mL
same,MIC,[4],> 128 µg/mL
same,MIC / MEC,[4],256 µg/mL
same,FICI,[5]; 5FC:ZOL,1.13
same,FICI,[5]; AMB:ZOL,1.25
same,FICI,[5]; [16],0.53
same,INH MICc,"[5]; C. albicans, FLC:INH combination, MIC of the inhibitor in combination with FLC",8
same,FLC FD (MIC-MICc fold decrease),"[5]; C. albicans, FLC:INH combination, fold decrease of FLC MIC",2
same,INH FD (MIC-MICc fold decrease),[5]; [16],32
same,FICI,[5]; [17],1.13
same,INH MICc,"[5]; C. albicans, ITR:INH combination, MIC of the inhibitor in combination with ITR",32
same,ITR FD (MIC-MICc fold decrease),"[5]; C. albicans, ITR:INH combination, fold decrease of ITR MIC",1
same,INH FD (MIC-MICc fold decrease),[5]; [17],8
same,FICI,[5]; [18],1.13
same,INH MICc,"[5]; C. albicans, KET:INH combination, MIC of the inhibitor in combination with KET",32
same,KET FD (MIC-MICc fold decrease),"[5]; C. albicans, KET:INH combination, fold decrease of KET MIC",1
same,INH FD (MIC-MICc fold decrease),[5]; [18],8
same,FICI,[5]; CAS:ZOL,2.17
same,FICI,[5]; FLC:ZOL,0.53
same,FICI,[5]; ITR:ZOL,1.13
same,FICI,[5]; KET:ZOL,1.13
same,FICI,[5]; VOR:ZOL,1.46
same,bisphosphonate MICc,[5]; ZOL with 5FC,16
same,bisphosphonate MICc,[5]; ZOL with AMB,32
same,bisphosphonate MICc,[5]; ZOL with CAS,32
same,bisphosphonate MICc,[5]; ZOL with FLC,8
same,bisphosphonate MICc,[5]; ZOL with ITR,32
same,bisphosphonate MICc,[5]; ZOL with KET,32
same,bisphosphonate MICc,[5]; ZOL with VOR,64
same,FICI,"[5]; with FLC, Candida albicans",0.53
same,FICI,"[5]; with ITR, Candida albicans",1.13
same,FICI,"[5]; with KET, Candida albicans",1.13
same,MFC,[6],> 128 µg/mL
same,MIC,[6],> 128 µg/mL
same,MIC / MEC,[6],>256 µg/mL
same,MIC / MEC,[7],128 µg/mL
same,MFC,[8]; Cryptococcus deuterogattii,128 µg/mL
same,MIC,[8]; Cryptococcus deuterogattii,128 µg/mL
same,MIC / MEC,[8]; Cryptococcus deuterogattii R265,128 µg/mL
same,MFC,[9],> 128 µg/mL
same,MIC,[9],128 µg/mL
same,MIC / MEC,[9],128 µg/mL
same,effect on azole MIC in combination,[10]; across all species tested,consistently reduced the MIC of the azole
same,antagonism with azole drugs,[10]; any of the azole drugs in any species tested,no antagonism
same,GM fungal MICc,[10]; geometric mean MIC in combination with azoles,14.3
same,MIC / MEC,[11],128 µg/mL
same,MIC / MEC,[12]; Candida glabrata CBS138 (ATCC 2001),8 µg/mL
same,MFC,"[12]; Nakaseomyces glabratus, CBS138",32 µg/mL
same,MIC,"[12]; Nakaseomyces glabratus, CBS138",8 µg/mL
same,FICI,[13]; 5FC:ZOL,2
same,FICI,[13]; [19],0.75
same,FLC MICc,"[13]; A. fumigatus, FLC:INH combination, MIC of FLC in combination with the inhibitor",64
same,INH MICc,"[13]; A. fumigatus, FLC:INH combination, MIC of the inhibitor in combination with FLC",64
same,FLC FD (MIC-MICc fold decrease),"[13]; A. fumigatus, FLC:INH combination, fold decrease of FLC MIC",2
same,INH FD (MIC-MICc fold decrease),[13]; [19],4
same,FICI,[13]; [20],0.51
same,ITR MICc,"[13]; A. fumigatus, ITR:INH combination, MIC of ITR in combination with the inhibitor",0.063
same,INH MICc,"[13]; A. fumigatus, ITR:INH combination, MIC of the inhibitor in combination with ITR",2
same,ITR FD (MIC-MICc fold decrease),"[13]; A. fumigatus, ITR:INH combination, fold decrease of ITR MIC",2
same,INH FD (MIC-MICc fold decrease),[13]; [20],128
same,FICI,[13]; [21],0.75
same,KET MICc,"[13]; A. fumigatus, KET:INH combination, MIC of KET in combination with the inhibitor",2
same,INH MICc,"[13]; A. fumigatus, KET:INH combination, MIC of the inhibitor in combination with KET",64
same,KET FD (MIC-MICc fold decrease),"[13]; A. fumigatus, KET:INH combination, fold decrease of KET MIC",2
same,INH FD (MIC-MICc fold decrease),[13]; [21],4
same,FICI,[13]; AMB:ZOL,1.03
same,FICI,[13]; CAS:ZOL,0.75
same,FICI,[13]; FLC:ZOL,0.75
same,FICI,[13]; ITR:ZOL,0.51
same,FICI,[13]; KET:ZOL,0.75
same,FICI,[13]; VOR:ZOL,0.75
same,bisphosphonate MICc,[13]; ZOL with 5FC,512
same,bisphosphonate MICc,[13]; ZOL with AMB,16
same,bisphosphonate MICc,[13]; ZOL with CAS,128
same,bisphosphonate MICc,[13]; ZOL with FLC,64
same,bisphosphonate MICc,[13]; ZOL with ITR,2
same,bisphosphonate MICc,[13]; ZOL with KET,128
same,bisphosphonate MICc,[13]; ZOL with VOR,64
same,FICI,"[13]; with FLC, Aspergillus fumigatus",0.75
same,FICI,"[13]; with ITR, Aspergillus fumigatus",0.51
same,FICI,"[13]; with KET, Aspergillus fumigatus",0.75
